Key:
STAT6 protein = target: T1, STAT6 protein (Homo sapiens, UniProt P42226); test: Fluorescence polarization (FP) binding assay, STAT6; settings: FP competition, 5 nM fluorescein-labeled tracer, 200 nM protein, PBS pH7.4; read-out: Binding STAT6
T1 sequence (P42226 1-847): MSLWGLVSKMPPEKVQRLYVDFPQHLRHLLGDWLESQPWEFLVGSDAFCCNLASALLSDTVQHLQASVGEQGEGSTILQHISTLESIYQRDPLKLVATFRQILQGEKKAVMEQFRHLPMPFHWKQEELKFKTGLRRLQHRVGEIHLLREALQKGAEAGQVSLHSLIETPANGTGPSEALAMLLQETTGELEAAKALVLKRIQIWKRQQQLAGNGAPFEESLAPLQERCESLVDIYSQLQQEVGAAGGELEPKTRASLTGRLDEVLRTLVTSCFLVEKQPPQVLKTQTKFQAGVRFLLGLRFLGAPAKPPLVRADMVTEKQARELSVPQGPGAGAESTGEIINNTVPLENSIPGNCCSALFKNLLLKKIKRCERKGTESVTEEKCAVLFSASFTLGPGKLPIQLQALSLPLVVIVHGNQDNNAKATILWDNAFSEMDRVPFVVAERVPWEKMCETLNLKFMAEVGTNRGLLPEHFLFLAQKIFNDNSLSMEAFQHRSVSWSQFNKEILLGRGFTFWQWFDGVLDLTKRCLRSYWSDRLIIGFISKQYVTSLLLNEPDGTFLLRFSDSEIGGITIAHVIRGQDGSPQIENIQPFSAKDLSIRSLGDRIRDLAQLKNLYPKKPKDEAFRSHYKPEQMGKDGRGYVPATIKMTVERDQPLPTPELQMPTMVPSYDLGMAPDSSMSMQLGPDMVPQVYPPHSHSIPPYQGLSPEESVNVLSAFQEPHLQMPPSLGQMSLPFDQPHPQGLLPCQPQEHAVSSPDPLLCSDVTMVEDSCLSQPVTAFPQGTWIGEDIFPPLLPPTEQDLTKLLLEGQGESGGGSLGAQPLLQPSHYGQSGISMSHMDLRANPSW
How it was run: (§1)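 Polarization of a 5 nM fluorescein tracer bound by 200 nM STAT protein, measured after 1 h room-temperature equilibration in buffered PBS pH 7.4 with DTT, gave inhibition constants via nonlinear curve fitting.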

STAT5A = target: T2, STAT5A (Homo sapiens, UniProt P42229); test: Fluorescence polarization (FP) binding assay, STAT5A; settings: FP competition, 5 nM fluorescein-labeled tracer, 200 nM protein, PBS pH7.4
T2 sequence (P42229 1-794): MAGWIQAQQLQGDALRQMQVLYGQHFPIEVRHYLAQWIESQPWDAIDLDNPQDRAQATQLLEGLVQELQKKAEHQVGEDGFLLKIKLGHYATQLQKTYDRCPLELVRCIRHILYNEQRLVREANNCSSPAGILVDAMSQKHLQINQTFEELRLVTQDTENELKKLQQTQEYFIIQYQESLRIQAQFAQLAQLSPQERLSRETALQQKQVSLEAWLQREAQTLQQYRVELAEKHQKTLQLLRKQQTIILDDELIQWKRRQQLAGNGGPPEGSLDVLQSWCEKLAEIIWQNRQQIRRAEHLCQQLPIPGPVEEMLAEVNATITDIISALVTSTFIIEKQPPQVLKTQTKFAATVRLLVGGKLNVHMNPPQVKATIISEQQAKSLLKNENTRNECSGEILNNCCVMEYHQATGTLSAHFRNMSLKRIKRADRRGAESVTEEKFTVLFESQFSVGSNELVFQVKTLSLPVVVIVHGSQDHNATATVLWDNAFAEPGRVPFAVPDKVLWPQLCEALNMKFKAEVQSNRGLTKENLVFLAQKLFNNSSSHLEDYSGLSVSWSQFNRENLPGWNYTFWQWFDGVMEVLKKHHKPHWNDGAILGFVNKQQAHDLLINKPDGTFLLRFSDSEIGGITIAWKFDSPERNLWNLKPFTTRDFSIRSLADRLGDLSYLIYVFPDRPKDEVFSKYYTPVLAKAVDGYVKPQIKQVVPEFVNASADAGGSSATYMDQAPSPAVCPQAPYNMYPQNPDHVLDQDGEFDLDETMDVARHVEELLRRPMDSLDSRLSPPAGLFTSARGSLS
How it was run: as §1

SMILES	Ki (STAT6 protein)	Ki (STAT5A)
CC(C)(C)[C@H](NC(=O)c1cc2cc(C(F)(F)P(=O)(O)O)ccc2s1)C(=O)N1CCC[C@H]1C(=O)N1CCOC(c2ccc(Cl)c(Cl)c2)C1 (stereo partly drawn) [Compound 114, ((2-(((2S)-1-((2S)-2-(2-(3,4-dichlorophenyl)morpholine-4-carbonyl)pyrrolidin-1-yl)-3,3-dimethyl-1-oxobutan-2-yl)carbamoyl)benzo[b]thiophen-5-yl)difluoromethyl)phosphonic acid]	100 to 1000 nM	1000 to 10000 nM
CCOC(=O)C1CCN(C(=O)[C@@H]2CCCN2C(=O)[C@@H](NC(=O)c2cc3cc(C(F)(F)P(=O)(O)O)ccc3s2)C(C)(C)C)CC1c1ccccc1 (stereo partly drawn) [Compound 115, ((2-(((2S)-1-((2S)-2-(4-(ethoxycarbonyl)-3-phenylpiperidine-1-carbonyl)pyrrolidin-1-yl)-3,3-dimethyl-1-oxobutan-2-yl)carbamoyl)benzo[b]thiophen-5-yl)difluoromethyl)phosphonic acid]	1000 to 10000 nM	> 10000 nM
CC(=O)N1CC[C@H]2CC[C@@H](C(=O)N3CCOC[C@@H]3c3ccccc3)N2C(=O)[C@@H](NC(=O)c2cc3cc(C(F)(F)P(=O)(O)O)ccc3s2)C1 [Compound 120, ((2-(((5S,8S,10aR)-3-acetyl-6-oxo-8-((S)-3-phenylmorpholine-4-carbonyl)decahydropyrrolo[1,2-a][1,5]diazocin-5-yl)carbamoyl)benzo[b]thiophen-5-yl)difluoromethyl)phosphonic acid]	1000 to 10000 nM	> 10000 nM

Further lines, results first:

Ki (STAT6 protein)	Ki (STAT5A)	SMILES
1000 to 10000 nM	> 10000 nM	CC(=O)N1CC[C@H]2CC[C@@H](C(=O)N3CCOC[C@H]3c3ccccc3)N2C(=O)[C@@H](NC(=O)c2cc3cc(C(F)(F)P(=O)(O)O)ccc3s2)C1 [Compound 121, ((2-(((5S,8S,10aR)-3-acetyl-6-oxo-8-((R)-3-phenylmorpholine-4-carbonyl)decahydropyrrolo[1,2-a][1,5]diazocin-5-yl)carbamoyl)benzo[b]thiophen-5-yl)difluoromethyl)phosphonic acid]
100 to 1000 nM	> 10000 nM	CC(=O)NC(C)(C)[C@H](NC(=O)c1cc2cc(C(F)(F)P(=O)(O)O)ccc2s1)C(=O)N1CCC[C@H]1C(=O)N1CCO[C@H](c2ccccc2)C1 [Compound 122, ((2-(((S)-3-acetamido-3-methyl-1-oxo-1-((S)-2-((R)-2-phenylmorpholine-4-carbonyl)pyrrolidin-1-yl)butan-2-yl)carbamoyl)benzo[b]thiophen-5-yl)difluoromethyl)phosphonic acid]
1000 to 10000 nM	> 10000 nM	CC(C)(C)[C@H](NC(=O)c1cc2cc(C(F)(F)P(=O)(O)O)ccc2s1)C(=O)N1CCC[C@H]1C(=O)N1CCC(C(=O)O)C(c2ccccc2)C1 (stereo partly drawn) [Compound 123, 1-(((S)-2-(5-(difluoro(phosphono)methyl)benzo [b]thiophene-2-carboxamido)-3,3-dimethylbutanoyl)-L-prolyl)-3-phenylpiperidine-4-carboxylic acid]
100 to 1000 nM	1000 to 10000 nM	CC(C)(C)[C@H](NC(=O)c1cc2cc(C(F)(F)P(=O)(O)O)ccc2s1)C(=O)N1CCC[C@H]1C(=O)N1CCCOC(c2ccccc2)C1 (stereo partly drawn) [Compound 124, ((2-(((2S)-3,3-dimethyl-1-oxo-1-((2S)-2-(2-phenyl-1,4-oxazepane-4-carbonyl)pyrrolidin-1-yl)butan-2-yl)carbamoyl)benzo[b]thiophen-5-yl)difluoromethyl)phosphonic acid]
100 to 1000 nM	1000 to 10000 nM	CC(C)(C)[C@H](NC(=O)c1cc2cc(C(F)(F)P(=O)(O)O)ccc2s1)C(=O)N1CCC[C@H]1C(=O)N1CCCCC(c2ccccc2)C1 (stereo partly drawn) [Compound 125, ((2-(((2S)-3,3-dimethyl-1-oxo-1-((2S)-2-(3-phenylazepane-1-carbonyl)pyrrolidin-1-yl)butan-2-yl)carbamoyl)benzo[b]thiophen-5-yl)difluoromethyl)phosphonic acid]
